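GI50 is the concentration that inhibits growth by half. At the TGI there is no net growth.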
What was measured:
Assay in all cases: DTP human tumour cell line panel, 384-well format
[1] = tested on: IGROV1 ovarian
[2] = tested on: HL-60(TB) leukemia
[3] = tested on: TK-10 renal
[4] = tested on: OVCAR-3 ovarian
[5] = tested on: CAKI-1 renal
[6] = tested on: T-47D breast
[7] = tested on: HS 578T breast
[8] = tested on: HCT-116 colon
[9] = tested on: DU-145 prostate
[10] = tested on: BT-549 breast
[11] = tested on: SR leukemia
[12] = tested on: A498 renal
[13] = tested on: RXF 393 renal
[14] = tested on: EKVX NSCLC
[15] = tested on: ACHN renal
[16] = tested on: HOP-92 NSCLC
[17] = tested on: U251 glioblastoma
[18] = tested on: MALME-3M melanoma
[19] = tested on: MDA-MB-468 breast
[20] = tested on: NCI-H460 NSCLC
[21] = tested on: MDA-MB-435 melanoma
[22] = tested on: SN12C renal
[23] = tested on: UO-31 renal
[24] = tested on: NCI-H322M lung
[25] = tested on: MDA-MB-231 breast
[26] = tested on: SK-MEL-2 melanoma
[27] = tested on: OVCAR-5 ovarian
[28] = tested on: SF-539 CNS
[29] = tested on: NCI-H23 lung
[30] = tested on: LOX IMVI melanoma
[31] = tested on: SK-MEL-28 melanoma
[32] = tested on: COLO 205 colon
[33] = tested on: UACC-257 melanoma
[34] = tested on: KM12 colon
[35] = tested on: HCT-15 colon
[36] = tested on: M14 melanoma
[37] = tested on: CCRF-CEM leukemia
[38] = tested on: SF-268 CNS
[39] = tested on: NCI/ADR-RES ovarian
[40] = tested on: SK-OV-3 ovarian
[41] = tested on: OVCAR-8 ovarian
[42] = tested on: K-562 leukemia
[43] = tested on: 786-0 renal
[44] = tested on: SW-620 colon
[45] = tested on: HCC-2998 colon
[46] = tested on: HOP-62 NSCLC
[47] = tested on: HT29 colon
[48] = tested on: MCF7 breast
[49] = tested on: NCI-H226 lung
[50] = tested on: SNB-19 CNS
[51] = tested on: UACC-62 melanoma
[52] = tested on: OVCAR-4 ovarian
[53] = tested on: RPMI-8226 leukemia
[54] = tested on: A549 NSCLC
[55] = tested on: PC-3 prostate
[56] = tested on: SK-MEL-5 melanoma
[57] = tested on: NCI-H522 lung
[58] = tested on: SNB-75 CNS
[59] = tested on: MOLT-4 leukemia
[60] = tested on: SF-295 CNS

Q: For `NC[C@@](O)(c1ccc(Cl)cc1)c1ccc(-c2cn[nH]c2)cc1`, which GI50 [1] is on record?
A: 323 nM

Q: What about the TGI [1] of the same compound?
A: 1.27 µM

Q: What about the GI50 [2] of the same compound?
A: 944 nM

Q: What about the TGI [2] of the same compound?
A: 2160 nM

Q: And the GI50 [3]?
A: 904 nM

Q: What about the TGI [3] of the same compound?
A: 2.11 µM

Q: What about the GI50 [4] of the same compound?
A: 1960 nM

Q: And the TGI [4]?
A: 3.39 µM

Q: What about the GI50 [5] of the same compound?
A: 560 nM

Q: And the TGI [5]?
A: 1.94 µM

Q: And the GI50 [6]?
A: 1300 nM

Q: And the TGI [6]?
A: 2.59 µM

Q: What about the GI50 [7] of the same compound?
A: 957 nM

Q: What about the TGI [7] of the same compound?
A: 2150 nM

Q: What about the GI50 [8] of the same compound?
A: 1650 nM

Q: What about the TGI [8] of the same compound?
A: 3.08 µM

Q: And the GI50 [9]?
A: 1470 nM

Q: What about the TGI [9] of the same compound?
A: 2810 nM

Q: What about the GI50 [10] of the same compound?
A: 511 nM

Q: What about the TGI [10] of the same compound?
A: 1780 nM

Q: And the GI50 [11]?
A: 369 nM

Q: What about the TGI [11] of the same compound?
A: 1380 nM

Q: What about the GI50 [12] of the same compound?
A: 1320 nM

Q: What about the TGI [12] of the same compound?
A: 2.61 µM

Q: What about the GI50 [13] of the same compound?
A: 999 nM

Q: And the TGI [13]?
A: 2180 nM

Q: What about the GI50 [14] of the same compound?
A: 560 nM

Q: What about the TGI [14] of the same compound?
A: 1820 nM

Q: What about the GI50 [15] of the same compound?
A: 1320 nM

Q: And the TGI [15]?
A: 2.6 µM

Q: What about the GI50 [16] of the same compound?
A: 1200 nM

Q: What about the TGI [16] of the same compound?
A: 2.53 µM

Q: What about the GI50 [17] of the same compound?
A: 1580 nM

Q: What about the TGI [17] of the same compound?
A: 2.95 µM

Q: What about the GI50 [18] of the same compound?
A: 1650 nM

Q: What about the TGI [18] of the same compound?
A: 3.02 µM

Q: What about the GI50 [19] of the same compound?
A: 849 nM

Q: And the TGI [19]?
A: 2110 nM

Q: With `CC(C)Oc1ccc(C(=O)N[C@H](CNC(=O)CN(C)C)Cc2ccc(-c3cn4cccc([C@H](C)O)c4n3)cc2)cc1Cl` as the compound, how does the GI50 [20] read?
A: < 14.7 nM

Q: What about the TGI [20] of the same compound?
A: < 21.4 nM

Q: And the TGI [1]?
A: 20.9 µM

Q: And the GI50 [21]?
A: < 14.2 nM

Q: And the TGI [21]?
A: < 22.8 nM

Q: What about the GI50 [2] of the same compound?
A: < 14.2 nM

Q: And the TGI [2]?
A: < 18.9 nM

Q: What about the GI50 [22] of the same compound?
A: < 20 nM

Q: What about the TGI [22] of the same compound?
A: 14.2 µM

Q: What about the GI50 [3] of the same compound?
A: < 26.7 nM

Q: What about the TGI [3] of the same compound?
A: 14.7 µM

Q: What about the GI50 [23] of the same compound?
A: 49.2 nM

Q: And the TGI [23]?
A: 17 µM

Q: What about the GI50 [24] of the same compound?
A: < 25.7 nM

Q: What about the TGI [24] of the same compound?
A: 16.7 µM

Q: What about the GI50 [25] of the same compound?
A: < 19.6 nM

Q: What about the TGI [25] of the same compound?
A: 4.27 µM

Q: What about the GI50 [26] of the same compound?
A: < 10 nM

Q: What about the TGI [26] of the same compound?
A: < 13 nM

Q: What about the GI50 [4] of the same compound?
A: < 10 nM

Q: And the TGI [4]?
A: < 0.01 µM

Q: What about the GI50 [27] of the same compound?
A: < 20.7 nM

Q: And the TGI [27]?
A: 14.4 µM

Q: What about the GI50 [5] of the same compound?
A: < 28.3 nM

Q: And the TGI [5]?
A: 15.4 µM

Q: What about the GI50 [28] of the same compound?
A: < 15.9 nM

Q: What about the TGI [28] of the same compound?
A: < 34 nM

Q: What about the GI50 [6] of the same compound?
A: < 17.4 nM

Q: And the TGI [6]?
A: 12.1 µM

Q: What about the GI50 [29] of the same compound?
A: < 14.5 nM

Q: What about the TGI [29] of the same compound?
A: < 21.8 nM

Q: What about the GI50 [8] of the same compound?
A: < 17.2 nM

Q: And the TGI [8]?
A: 12.2 µM

Q: And the GI50 [30]?
A: 37.9 nM

Q: What about the TGI [30] of the same compound?
A: 10.3 µM

Q: What about the GI50 [31] of the same compound?
A: 270 nM

Q: What about the TGI [31] of the same compound?
A: 8.22 µM

Q: What about the GI50 [32] of the same compound?
A: 21.4 nM

Q: And the TGI [32]?
A: 42.7 nM

Q: And the GI50 [33]?
A: < 21.9 nM

Q: And the TGI [33]?
A: 1820 nM

Q: And the GI50 [34]?
A: < 20.9 nM

Q: What about the TGI [34] of the same compound?
A: 13.8 µM

Q: What about the GI50 [35] of the same compound?
A: 84.7 nM

Q: What about the TGI [35] of the same compound?
A: 15.8 µM

Q: And the GI50 [36]?
A: < 16 nM

Q: What about the TGI [36] of the same compound?
A: 269 nM

Q: And the GI50 [37]?
A: 17.2 nM

Q: And the TGI [37]?
A: 33.5 nM

Q: What about the GI50 [38] of the same compound?
A: < 17.9 nM

Q: And the TGI [38]?
A: 13.2 µM

Q: What about the GI50 [39] of the same compound?
A: 1410 nM

Q: And the TGI [39]?
A: 4.67 µM

Q: And the GI50 [9]?
A: < 17.4 nM

Q: What about the TGI [9] of the same compound?
A: < 28.9 nM

Q: What about the GI50 [40] of the same compound?
A: < 16.1 nM

Q: And the TGI [40]?
A: 8.72 µM

Q: And the GI50 [10]?
A: < 21.2 nM

Q: What about the GI50 [41] of the same compound?
A: < 19 nM

Q: What about the TGI [41] of the same compound?
A: 15.9 µM

Q: And the GI50 [42]?
A: < 12.8 nM

Q: What about the TGI [42] of the same compound?
A: < 22.1 nM

Q: What about the GI50 [43] of the same compound?
A: < 17.8 nM

Q: And the TGI [43]?
A: 4.56 µM

Q: What about the GI50 [44] of the same compound?
A: < 19.8 nM

Q: What about the TGI [44] of the same compound?
A: 13.4 µM

Q: And the GI50 [45]?
A: < 17.9 nM

Q: What about the GI50 [11] of the same compound?
A: < 12.1 nM

Q: And the TGI [11]?
A: < 17.1 nM

Q: And the GI50 [46]?
A: < 18.1 nM

Q: What about the TGI [46] of the same compound?
A: 14.7 µM

Q: What about the GI50 [12] of the same compound?
A: < 22.9 nM

Q: And the TGI [12]?
A: 11.4 µM

Q: What about the GI50 [13] of the same compound?
A: < 18.5 nM

Q: And the GI50 [14]?
A: 27.9 nM

Q: What about the TGI [14] of the same compound?
A: 240 nM

Q: And the GI50 [15]?
A: 53.7 nM

Q: And the TGI [15]?
A: 20.1 µM

Q: What about the GI50 [47] of the same compound?
A: < 12.2 nM

Q: And the TGI [47]?
A: < 21.4 nM

Q: And the GI50 [48]?
A: < 23 nM

Q: What about the TGI [48] of the same compound?
A: 13.5 µM

Q: And the GI50 [49]?
A: 343 nM

Q: And the TGI [49]?
A: 14.5 µM

Q: What about the GI50 [50] of the same compound?
A: < 17.4 nM

Q: And the TGI [50]?
A: 14.8 µM

Q: What about the GI50 [51] of the same compound?
A: < 17.7 nM

Q: What about the TGI [51] of the same compound?
A: 9.18 µM

Q: What about the GI50 [16] of the same compound?
A: 55 nM

Q: And the TGI [16]?
A: 12.3 µM

Q: What about the GI50 [17] of the same compound?
A: < 17.5 nM

Q: What about the TGI [17] of the same compound?
A: 11.5 µM

Q: What about the GI50 [52] of the same compound?
A: < 20.9 nM

Q: And the TGI [52]?
A: 16.1 µM

Q: What about the GI50 [53] of the same compound?
A: < 13.7 nM

Q: And the TGI [53]?
A: < 18.4 nM

Q: What about the GI50 [54] of the same compound?
A: < 20.7 nM

Q: What about the TGI [54] of the same compound?
A: 14.5 µM

Q: And the GI50 [55]?
A: < 20.3 nM

Q: And the TGI [55]?
A: 12.8 µM

Q: And the GI50 [56]?
A: < 21.1 nM

Q: What about the GI50 [57] of the same compound?
A: < 10 nM

Q: What about the TGI [57] of the same compound?
A: < 10 nM

Q: And the GI50 [18]?
A: 182 nM

Q: What about the TGI [18] of the same compound?
A: 3.16 µM

Q: And the GI50 [58]?
A: 44.6 nM

Q: And the TGI [58]?
A: 16.6 µM

Q: What about the GI50 [59] of the same compound?
A: < 11.1 nM

Q: And the TGI [59]?
A: < 15.9 nM

Q: What about the GI50 [19] of the same compound?
A: < 10 nM

Q: What about the TGI [19] of the same compound?
A: < 10 nM

Q: And the GI50 [60]?
A: < 10 nM

Q: And the TGI [60]?
A: < 10 nM
